Experimental data published in the supplement of paper PMC10307832.

Experiments:
Test in all cases: relative viability (nuclei count vs DMSO), 5 days (fraction); higher = more cells survive
[1] = test system: NCI-H2170
Summary of the method: (§1)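 Medians of duplicate plates are given as relative viability. That measure is the nuclei count in treated wells divided by the count in vehicle wells. Counts were taken on 4× images of lung cancer cell lines in 1536-well plates, 5 days after pin-tool dosing the day after seeding with one drug alone or a fixed anchor-drug dose plus five library-drug doses (not always all listed) in √10 steps.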

[2] = test system: NCI-H441
Summary of the method: as §1

[3] = test system: NCI-H2023
Summary of the method: as §1

[4] = test system: LC-2-ad
Summary of the method: as §1

[5] = test system: SW 900
Summary of the method: as §1

[6] = test system: NCI-H650
Summary of the method: as §1

[7] = test system: NCI-H1651
Summary of the method: as §1

[8] = test system: NCI-H2009
Summary of the method: as §1

[9] = test system: EPLC-272H
Summary of the method: as §1

[10] = test system: NCI-H727
Summary of the method: as §1

[11] = test system: NCI-H23
Summary of the method: as §1

[12] = test system: LOU-NH91
Summary of the method: as §1

[13] = test system: H3255
Summary of the method: as §1

[14] = test system: PC-3 [JPC-3]
Summary of the method: as §1

[15] = test system: HARA
Summary of the method: as §1

[16] = test system: NCI-H2085
Summary of the method: as §1

[17] = test system: NCI-H2087
Summary of the method: as §1

[18] = test system: NCI-H1650
Summary of the method: as §1

[19] = test system: UMC-11
Summary of the method: as §1

[20] = test system: NCI-H1975
Summary of the method: as §1

[21] = test system: SW 1573
Summary of the method: as §1

[22] = test system: NCI-H838
Summary of the method: as §1

Cc1csc(=NC2CCCCC2)n1/N=C/c1ccc(O)c(O)c1O [MIM1] + Nc1ncn([C@H]2C[C@H](O)[C@@H](CO)O2)c(=O)n1 [Decitabine] (partner 2 µM)
relative viability ([1]; first compound 0.2 µM): 0.448 | relative viability ([1]; first compound 0.6325 µM): 0.455 | relative viability ([1]; first compound 2 µM): 0.494 | relative viability ([1]; first compound 6.325 µM): 0.401 | relative viability ([1]; first compound 20 µM): 0.27 | relative viability ([2]; first compound 0.2 µM): 0.132 | relative viability ([2]; first compound 0.6325 µM): 0.252 | relative viability ([2]; first compound 2 µM): 0.241 | relative viability ([2]; first compound 6.325 µM): 0.173 | relative viability ([2]; first compound 20 µM): 0.178 | relative viability ([3]; first compound 0.2 µM): 0.24 | relative viability ([3]; first compound 0.6325 µM): 0.215 | relative viability ([3]; first compound 2 µM): 0.212 | relative viability ([3]; first compound 6.325 µM): 0.157 | relative viability ([3]; first compound 20 µM): 0.0821 | relative viability ([4]; first compound 0.2 µM): 0.777 | relative viability ([4]; first compound 0.6325 µM): 0.736 | relative viability ([4]; first compound 2 µM): 0.868 | relative viability ([4]; first compound 6.325 µM): 0.453 | relative viability ([4]; first compound 20 µM): 0.508 | relative viability ([5]; first compound 0.2 µM): 0.345 | relative viability ([5]; first compound 0.6325 µM): 0.482 | relative viability ([5]; first compound 2 µM): 0.486 | relative viability ([5]; first compound 6.325 µM): 0.31 | relative viability ([5]; first compound 20 µM): 0.206 | relative viability ([6]; first compound 0.2 µM): 0.294 | relative viability ([6]; first compound 0.6325 µM): 0.342 | relative viability ([6]; first compound 2 µM): 0.345 | relative viability ([6]; first compound 6.325 µM): 0.323 | relative viability ([6]; first compound 20 µM): 0.206 | relative viability ([7]; first compound 0.2 µM): 0.608 | relative viability ([7]; first compound 0.6325 µM): 0.524 | relative viability ([7]; first compound 2 µM): 0.56 | relative viability ([7]; first compound 6.325 µM): 0.509 | relative viability ([7]; first compound 20 µM): 0.306 | relative viability ([8]; first compound 0.2 µM): 0.401 | relative viability ([8]; first compound 0.6325 µM): 0.39 | relative viability ([8]; first compound 2 µM): 0.371 | relative viability ([8]; first compound 6.325 µM): 0.36 | relative viability ([8]; first compound 20 µM): 0.291 | relative viability ([9]; first compound 0.2 µM): 0.36 | relative viability ([9]; first compound 0.6325 µM): 0.382 | relative viability ([9]; first compound 2 µM): 0.375 | relative viability ([9]; first compound 6.325 µM): 0.29 | relative viability ([9]; first compound 20 µM): 0.154 | relative viability ([10]; first compound 0.2 µM): 0.994 | relative viability ([10]; first compound 0.6325 µM): 0.818 | relative viability ([10]; first compound 2 µM): 0.841 | relative viability ([10]; first compound 6.325 µM): 0.879 | relative viability ([10]; first compound 20 µM): 0.574 | relative viability ([11]; first compound 0.2 µM): 0.336 | relative viability ([11]; first compound 0.6325 µM): 0.322 | relative viability ([11]; first compound 2 µM): 0.288 | relative viability ([11]; first compound 6.325 µM): 0.281 | relative viability ([11]; first compound 20 µM): 0.169 | relative viability ([12]; first compound 0.2 µM): 0.787 | relative viability ([12]; first compound 0.6325 µM): 0.788 | relative viability ([12]; first compound 2 µM): 0.644 | relative viability ([12]; first compound 6.325 µM): 0.742 | relative viability ([12]; first compound 20 µM): 0.458 | relative viability ([13]; first compound 0.2 µM): 0.562 | relative viability ([13]; first compound 0.6325 µM): 0.657 | relative viability ([13]; first compound 2 µM): 0.527 | relative viability ([13]; first compound 6.325 µM): 0.486 | relative viability ([13]; first compound 20 µM): 0.242 | relative viability ([14]; first compound 0.2 µM): 0.816 | relative viability ([14]; first compound 0.6325 µM): 0.894 | relative viability ([14]; first compound 2 µM): 0.752 | relative viability ([14]; first compound 6.325 µM): 0.774 | relative viability ([14]; first compound 20 µM): 0.609 | relative viability ([15]; first compound 0.2 µM): 0.529 | relative viability ([15]; first compound 0.6325 µM): 0.722 | relative viability ([15]; first compound 2 µM): 0.697 | relative viability ([15]; first compound 6.325 µM): 0.475 | relative viability ([15]; first compound 20 µM): 0.204 | relative viability ([16]; first compound 0.2 µM): 0.539 | relative viability ([16]; first compound 0.6325 µM): 0.522 | relative viability ([16]; first compound 2 µM): 0.516 | relative viability ([16]; first compound 6.325 µM): 0.491 | relative viability ([16]; first compound 20 µM): 0.563 | relative viability ([17]; first compound 0.2 µM): 0.286 | relative viability ([17]; first compound 0.6325 µM): 0.273 | relative viability ([17]; first compound 2 µM): 0.231 | relative viability ([17]; first compound 6.325 µM): 0.327 | relative viability ([17]; first compound 20 µM): 0.246 | relative viability ([18]; first compound 0.2 µM): 0.428 | relative viability ([18]; first compound 0.6325 µM): 0.448 | relative viability ([18]; first compound 2 µM): 0.348 | relative viability ([18]; first compound 6.325 µM): 0.199 | relative viability ([18]; first compound 20 µM): 0.135 | relative viability ([19]; first compound 0.2 µM): 0.565 | relative viability ([19]; first compound 0.6325 µM): 0.585 | relative viability ([19]; first compound 2 µM): 0.647 | relative viability ([19]; first compound 6.325 µM): 0.607 | relative viability ([19]; first compound 20 µM): 0.42 | relative viability ([20]; first compound 0.2 µM): 0.384 | relative viability ([20]; first compound 0.6325 µM): 0.385 | relative viability ([20]; first compound 2 µM): 0.39 | relative viability ([20]; first compound 6.325 µM): 0.216 | relative viability ([20]; first compound 20 µM): 0.137 | relative viability ([21]; first compound 0.2 µM): 0.592 | relative viability ([21]; first compound 0.6325 µM): 0.516 | relative viability ([21]; first compound 2 µM): 0.429 | relative viability ([21]; first compound 6.325 µM): 0.306 | relative viability ([21]; first compound 20 µM): 0.166 | relative viability ([22]; first compound 0.2 µM): 0.468 | relative viability ([22]; first compound 0.6325 µM): 0.462 | relative viability ([22]; first compound 2 µM): 0.513 | relative viability ([22]; first compound 6.325 µM): 0.394 | relative viability ([22]; first compound 20 µM): 0.221
